From patent US8518935B2, “Amorphous besifloxacin solid” (Bausch & Lomb Incorporated, priority 2009, dated 2013)
Values after ≈ are worked out from the molar mass of the structure shown.

Test: Solubility in water at room temperature and pH of about 7
Format: physicochemical

solubility in water (room temperature) | solubility (pH 7, room temperature) | Compound
73.3 µg/mL (≈ 186 µM) |  | N[C@@H]1CCCCN(c2c(F)cc3c(=O)c(C(=O)O)cn(C4CC4)c3c2Cl)C1 [besifloxacin free base starting material, (R)-(+)-7-(3-amino-2,3,4,5,6,7-hexahydro-1H-azepin-1-yl)-1-cyclopropyl-8-chloro-6-fluoro-1,4-dihydro-4-oxoquinoline-3-carboxylic acid]
 | 516 µg/mL (≈ 1310 µM) | N[C@@H]1CCCCN(c2c(F)cc3c(=O)c(C(=O)O)cn(C4CC4)c3c2Cl)C1 [amorphous besifloxacin free base, (R)-(+)-7-(3-amino-2,3,4,5,6,7-hexahydro-1H-azepin-1-yl)-1-cyclopropyl-8-chloro-6-fluoro-1,4-dihydro-4-oxoquinoline-3-carboxylic acid]
